Reference: ChEMBL document CHEMBL3885881, “DrugMatrix”

Species on record: Rattus norvegicus
Assay: DrugMatrix - Regimen: Daily Repeat
Type: toxicity, organism-based, Sprague-Dawley
Design: regimen Daily Repeat, gender Male, age 6-8 weeks
Settings: in vivo, po, route oral GAVAGE, vehicle .5 % CMC; for URIC ACID / ALANINE AMINOTRANSFERASE / ALBUMIN / ALKALINE PHOSPHATASE / ASPARTATE AMINOTRANSFERASE / BLOOD UREA NITROGEN / CARBON DIOXIDE / CHLORIDE / CHOLESTEROL / CREATINE PHOSPHOKINASE / CREATININE / GLUCOSE / LACTATE DEHYDROGENASE / LIPASE / PHOSPHORUS / POTASSIUM / SODIUM / TOTAL BILIRUBIN / TOTAL PROTEIN: tissue Plasma; for ABSOLUTE BASOPHIL / ABSOLUTE EOSINOPHIL / ABSOLUTE LYMPHOCYTE / ABSOLUTE MONOCYTE / ABSOLUTE SEGMENTED NEUTROPHIL / BASOPHIL / EOSINOPHIL / ERYTHROCYTE COUNT / HEMATOCRIT / HEMOGLOBIN / LEUKOCYTE COUNT / LYMPHOCYTE / MEAN CORPUSCULAR HEMOGLOBIN / MEAN CORPUSCULAR HEMOGLOBIN CONCENTRATION / MONOCYTE / NEUTROPHIL / NUCLEATED RED BLOOD CELLS / PLATELET COUNT: tissue Blood
[1] = 10 mg/kg, 120 h, dose level Low, time 5 day
[2] = 269 mg/kg, 72 h, dose level High, time 3 day
[3] = 269 mg/kg, 120 h, dose level High, time 5 day

SMILES: O=C1C(CC[S+]([O-])c2ccccc2)C(=O)N(c2ccccc2)N1c1ccccc1 (stereo unspecified) [SULFINPYRAZONE]
- URIC ACID (10 mg/kg, 72 h, dose level Low, time 3 day): 2 mg/dL
- ABSOLUTE BASOPHIL [1]: 0 CELLS/uL
- ABSOLUTE EOSINOPHIL [1]: 0 CELLS/uL
- ABSOLUTE LYMPHOCYTE [1]: 8238.33 CELLS/uL
- ABSOLUTE MONOCYTE [1]: 0 CELLS/uL
- ABSOLUTE SEGMENTED NEUTROPHIL [1]: 761.67 CELLS/uL
- BASOPHIL [1]: 0%
- EOSINOPHIL [1]: 0%
- ERYTHROCYTE COUNT [1]: 5.27 x10E6/uL
- HEMATOCRIT [1]: 33.27%
- HEMOGLOBIN [1]: 13.03 G/DL
- LEUKOCYTE COUNT [1]: 9 x10E3/uL
- LYMPHOCYTE [1]: 91.67%
- MEAN CORPUSCULAR HEMOGLOBIN [1]: 24.77 pg
- MEAN CORPUSCULAR HEMOGLOBIN CONCENTRATION [1]: 39.17 G/DL
- MONOCYTE [1]: 0%
- NEUTROPHIL [1]: 8.33%
- NUCLEATED RED BLOOD CELLS [1]: 0 /100WBC
- PLATELET COUNT [1]: 1182 x10E3/uL
- ALANINE AMINOTRANSFERASE [1]: 51.33 u/L
- ALBUMIN [1]: 4.23 G/DL
- ALKALINE PHOSPHATASE [1]: 307 u/L
- ASPARTATE AMINOTRANSFERASE [1]: 86.67 u/L
- BLOOD UREA NITROGEN [1]: 15.33 mg/dL
- CARBON DIOXIDE [1]: 30 mmol/L
- CHLORIDE [1]: 102 MEQ/L
- CHOLESTEROL [1]: 63.67 mg/dL
- CREATINE PHOSPHOKINASE [1]: 204 u/L
- CREATININE [1]: 0.19 mg/dL
- GLUCOSE [1]: 139.33 mg/dL
- LACTATE DEHYDROGENASE [1]: 126 u/L
- LIPASE [1]: 9 u/L
- PHOSPHORUS [1]: 11.67 mg/dL
- POTASSIUM [1]: 6.44 MEQ/L
- SODIUM [1]: 148.53 MEQ/L
- TOTAL BILIRUBIN [1]: 0.27 mg/dL
- TOTAL PROTEIN [1]: 6.3 G/DL
- URIC ACID [1]: 1 mg/dL
- ABSOLUTE BASOPHIL [2]: 0 CELLS/uL
- ABSOLUTE EOSINOPHIL [2]: 0 CELLS/uL
- ABSOLUTE LYMPHOCYTE [2]: 15229.67 CELLS/uL
- ABSOLUTE MONOCYTE [2]: 176.67 CELLS/uL
- ABSOLUTE SEGMENTED NEUTROPHIL [2]: 1627 CELLS/uL
- BASOPHIL [2]: 0%
- EOSINOPHIL [2]: 0%
- ERYTHROCYTE COUNT [2]: 4.48 x10E6/uL
- HEMATOCRIT [2]: 28.7%
- HEMOGLOBIN [2]: 11.63 G/DL
- LEUKOCYTE COUNT [2]: 17.03 x10E3/uL
- LYMPHOCYTE [2]: 89.67%
- MEAN CORPUSCULAR HEMOGLOBIN [2]: 26.03 pg
- MEAN CORPUSCULAR HEMOGLOBIN CONCENTRATION [2]: 40.6 G/DL
- MONOCYTE [2]: 1%
- NEUTROPHIL [2]: 9.33%
- NUCLEATED RED BLOOD CELLS [2]: 0 /100WBC
- PLATELET COUNT [2]: 1194 x10E3/uL
- ALBUMIN [2]: 3.87 G/DL
- ALKALINE PHOSPHATASE [2]: 319.33 u/L
- ASPARTATE AMINOTRANSFERASE [2]: 92.67 u/L
- BLOOD UREA NITROGEN [2]: 16 mg/dL
- CARBON DIOXIDE [2]: 21.33 mmol/L
- CHLORIDE [2]: 105.67 MEQ/L
- CHOLESTEROL [2]: 78.67 mg/dL
- CREATINE PHOSPHOKINASE [2]: 438 u/L
- CREATININE [2]: 0.18 mg/dL
- GLUCOSE [2]: 147 mg/dL
- LACTATE DEHYDROGENASE [2]: 291 u/L
- LIPASE [2]: 10.33 u/L
- PHOSPHORUS [2]: 11.97 mg/dL
- POTASSIUM [2]: 6.1 MEQ/L
- SODIUM [2]: 145.03 MEQ/L
- TOTAL BILIRUBIN [2]: 0.23 mg/dL
- TOTAL PROTEIN [2]: 5.5 G/DL
- URIC ACID [2]: 1.4 mg/dL
- ABSOLUTE BASOPHIL [3]: 0 CELLS/uL
- ABSOLUTE EOSINOPHIL [3]: 0 CELLS/uL
- ABSOLUTE LYMPHOCYTE [3]: 20046 CELLS/uL
- ABSOLUTE MONOCYTE [3]: 55 CELLS/uL
- ABSOLUTE SEGMENTED NEUTROPHIL [3]: 2899 CELLS/uL
- BASOPHIL [3]: 0%
- EOSINOPHIL [3]: 0%
- ERYTHROCYTE COUNT [3]: 5.28 x10E6/uL
- HEMATOCRIT [3]: 32.4%
- HEMOGLOBIN [3]: 13.17 G/DL
- LEUKOCYTE COUNT [3]: 23 x10E3/uL
- LYMPHOCYTE [3]: 87.33%
- MEAN CORPUSCULAR HEMOGLOBIN [3]: 24.9 pg
- MEAN CORPUSCULAR HEMOGLOBIN CONCENTRATION [3]: 40.63 G/DL
- MONOCYTE [3]: 0.33%
- NEUTROPHIL [3]: 12.33%
- NUCLEATED RED BLOOD CELLS [3]: 0 /100WBC
- PLATELET COUNT [3]: 1314.67 x10E3/uL
- ALANINE AMINOTRANSFERASE [3]: 59.33 u/L
- ALBUMIN [3]: 4.13 G/DL
- ALKALINE PHOSPHATASE [3]: 291.33 u/L
- ASPARTATE AMINOTRANSFERASE [3]: 70.33 u/L
- BLOOD UREA NITROGEN [3]: 15 mg/dL
- CARBON DIOXIDE [3]: 26.67 mmol/L
- CHLORIDE [3]: 102.33 MEQ/L
- CHOLESTEROL [3]: 77 mg/dL
- CREATINE PHOSPHOKINASE [3]: 224.33 u/L
- CREATININE [3]: 0.25 mg/dL
- GLUCOSE [3]: 143.67 mg/dL
- LACTATE DEHYDROGENASE [3]: 78.33 u/L
- LIPASE [3]: 9 u/L
- PHOSPHORUS [3]: 12.43 mg/dL
- POTASSIUM [3]: 6.73 MEQ/L
- SODIUM [3]: 147 MEQ/L
- TOTAL BILIRUBIN [3]: 0.23 mg/dL
- TOTAL PROTEIN [3]: 6 G/DL
- URIC ACID [3]: 1.53 mg/dL
